Some test systems named below: Bacillus subtilis; Escherichia coli ML-35p; Escherichia coli.
Common to all, as to experiment: ≥ marks a high value that may be exact or a test limit, other limits are often not marked, values filed in µg/mL are converted to µM
Experiment [1] relates to Micrococcus luteus ATCC 9341.
Experiment [2] relates to Staphylococcus aureus ATCC 25923.
In experiment [3] the test system is Escherichia coli ATCC 25726.
The subject of experiment [4] is Pseudomonas aeruginosa CMCCB 10104.
Experiment [5] has as its system Candida albicans ATCC 2002.
The subject of experiment [6] is Escherichia coli ATCC 25922.
Experiment [7] concerns Staphylococcus aureus ATCC 2592.
The test system of experiment [8] is Staphylococcus aureus ATCC 43300.
Experiment [9] deals with Pseudomonas aeruginosa ATCC 27853.
Experiment [10] has as its system Pseudomonas aeruginosa PAO1.

Twelve compounds from DBAASP can be followed below.

Usually MIC stands for the smallest concentration in the dilution series that meets the test's criterion for growth inhibition. A higher MIC goes with weaker potency.

Structures are written as SMILES. Converted amounts (≈) assume the structure as drawn.

`NC(=O)[C@H](CCCN=C(N)N)NC(=O)[C@H](CCCN=C(N)N)NC(=O)[C@H](Cc1c[nH]c2ccccc12)NC(=O)[C@@H]1CCCN1C(=O)[C@H](Cc1c[nH]c2ccccc12)NC(=O)[C@H](Cc1c[nH]c2ccccc12)NC(=O)[C@@H]1CCCN1C(=O)[C@@H](N)Cc1c[nH]c2ccccc12` [WPWWPWRR]: the MIC in [1] was 1.6 µM (≈ 2.03 µg/mL).

In the case of `CC[C@H](C)[C@H](N)C(=O)N[C@@H](CC(C)C)C(=O)N1CCC[C@H]1C(=O)N[C@@H](Cc1c[nH]c2ccccc12)C(=O)N[C@@H](CC(=O)O)C(=O)N[C@@H](Cc1c[nH]c2ccccc12)C(=O)N1CCC[C@H]1C(=O)N[C@@H](Cc1c[nH]c2ccccc12)C(=O)N[C@@H](Cc1c[nH]c2ccccc12)C(=O)N1CCC[C@H]1C(=O)N[C@@H](Cc1c[nH]c2ccccc12)C(=O)N[C@@H](CC(=O)O)C(=O)N[C@@H](CC(=O)O)C(N)=O` [ILPWDWPWWPWDD], the minimal inhibitory concentration (MIC) in experiment [1] is ≥ 100 µM.

Take `CC[C@H](C)[C@H](N)C(=O)N[C@@H](CC(C)C)C(=O)NCC(=O)N[C@@H](CCCCN)C(=O)N[C@@H](CC(C)C)C(=O)N[C@@H](CC(C)C)C(=O)N[C@@H](CO)C(=O)N[C@H](C(=O)N[C@@H](C)C(=O)N[C@@H](C)C(=O)N[C@@H](CCCCN)C(=O)N[C@@H](CC(C)C)C(=O)N[C@@H](CC(C)C)C(=O)N[C@@H](CO)C(=O)N[C@@H](CCCCN)C(=O)N[C@@H](CC(C)C)C(N)=O)[C@@H](C)O` [ILGKLLSTAAKLLSKL]: the minimal inhibitory concentration (MIC) in experiment [2] was found to be 2 µM (≈ 3.34 µg/mL); in experiment [3], 16 µM (≈ 26.7 µg/mL).

With `CC[C@H](C)[C@H](NC(=O)[C@H](CC(C)C)NC(=O)[C@H](CCC(N)=O)NC(=O)[C@@H](NC(=O)[C@H](C)NC(=O)CNC(=O)[C@H](CCCCN)NC(=O)[C@@H](NC(=O)[C@H](CC(C)C)NC(=O)[C@@H](NC(=O)[C@H](Cc1ccccc1)NC(=O)[C@@H](NC(=O)CN)C(C)C)[C@@H](C)O)[C@@H](C)CC)[C@@H](C)O)C(=O)NCC(=O)N[C@@H](CCCCN)C(=O)N[C@H](C(=O)N[C@@H](CC(C)C)C(=O)NCC(=O)N[C@@H](CCCCN)C(=O)N[C@@H](CCC(=O)O)C(=O)N[C@@H](CC(C)C)C(=O)NCC(=O)N[C@@H](CCCCN)C(=O)N[C@H](C(=O)NCC(=O)N[C@@H](CC(C)C)C(=O)N[C@@H](CCC(=O)O)C(=O)N[C@H](C(=O)N[C@@H](CCSC)C(=O)N[C@@H](C)C(=O)N[C@H]1CSSC[C@@H](C(=O)O)NC(=O)[C@H](CCC(N)=O)NC(=O)[C@H](CCCCN)NC(=O)[C@H]([C@@H](C)O)NC(=O)[C@H]([C@@H](C)CC)NC(=O)[C@H](CCCCN)NC1=O)[C@@H](C)CC)[C@@H](C)O)[C@@H](C)O` [GVFTLIKGATQLIGKTLGKELGKTGLEIMACKITKQC], the MIC was found to be 4.06 µM (≈ 15.8 µg/mL) in experiment [4], 2.03 µM (≈ 7.9 µg/mL) in [5], 4.06 µM (≈ 15.8 µg/mL) in [2] and 4.06 µM (≈ 15.8 µg/mL) in experiment [6].

Turning to `CC[C@H](C)[C@H](N)C(=O)N[C@@H](CC(C)C)C(=O)N1CCC[C@H]1C(=O)N[C@@H](Cc1c[nH]c2ccccc12)C(=O)N[C@@H](CCC(=O)O)C(=O)N[C@@H](Cc1c[nH]c2ccccc12)C(=O)N1CCC[C@H]1C(=O)N[C@@H](Cc1c[nH]c2ccccc12)C(=O)N[C@@H](Cc1c[nH]c2ccccc12)C(=O)N1CCC[C@H]1C(=O)N[C@@H](Cc1c[nH]c2ccccc12)C(=O)N[C@@H](CCC(=O)O)C(=O)N[C@@H](CCC(=O)O)C(N)=O` [ILPWEWPWWPWEE], the minimal inhibitory concentration (MIC) in experiment [1] is ≥ 100 µM.

On to `CC[C@H](C)[C@H](N)C(=O)N[C@@H](CC(C)C)C(=O)N1CCC[C@H]1C(=O)N[C@@H](Cc1c[nH]c2ccccc12)C(=O)N[C@@H](CCCCN)C(=O)N[C@@H](Cc1c[nH]c2ccccc12)C(=O)N1CCC[C@H]1C(=O)N[C@@H](Cc1c[nH]c2ccccc12)C(=O)N[C@@H](Cc1c[nH]c2ccccc12)C(=O)N1CCC[C@H]1C(=O)N[C@@H](Cc1c[nH]c2ccccc12)C(N)=O` [ILPWKWPWWPW], for which, in experiment [1], the MIC stood at 0.8 µM (≈ 1.28 µg/mL).

With `CC[C@H](C)[C@H](NC(=O)[C@H](CCCCN)NC(=O)[C@H](CCCCN)NC(=O)CNC(=O)[C@H](C)NC(=O)CNC(=O)[C@H](Cc1ccccc1)NC(=O)[C@@H](NC(=O)[C@H](CO)NC(=O)CNC(=O)[C@H](CC(C)C)NC(=O)[C@H](CC(C)C)NC(=O)CN)[C@@H](C)CC)C(=O)N[C@@H](C)C(=O)N[C@H]1CSSC[C@@H](C(=O)O)NC(=O)[C@H](CC(C)C)NC(=O)CNC(=O)[C@H](CO)NC(=O)[C@H](CC(C)C)NC(=O)[C@H](C)NC1=O` [GLLGSIFGAGKKIACALSGLC], the results for the MIC in [2] and in [3] were 31.6 µM (≈ 62.4 µg/mL) and 15.7 µM (≈ 31 µg/mL), respectively.

`CC[C@H](C)[C@H](NC(=O)[C@H](C)NC(=O)[C@H](CCSC)NC(=O)[C@@H](NC(=O)[C@H](CCCCN)NC(=O)[C@@H](NC(=O)[C@H](CCCCN)NC(=O)[C@H](CC(=O)O)NC(=O)[C@H](CCCN=C(N)N)NC(=O)[C@@H](NC(=O)[C@@H](N)CO)[C@@H](C)CC)[C@@H](C)CC)[C@@H](C)O)C(=O)N[C@@H](CC(=O)O)C(=O)N[C@@H](CC(C)C)C(=O)N[C@@H](C)C(=O)N[C@@H](CCCCN)C(=O)N[C@@H](CO)C(=O)N[C@@H](C)C(=O)NCC(=O)N[C@H](C(=O)NCC(=O)N[C@H](C(=O)N[C@@H](CC(C)C)C(=O)N[C@@H](CCCCN)C(=O)N[C@H](C(=O)N[C@@H](CC(C)C)C(=O)N[C@H](C(=O)N[C@H]1CSSC[C@@H](C(=O)O)NC(=O)[C@H](CO)NC(=O)[C@H](CCCCN)NC(=O)[C@H](CC(=O)O)NC(=O)[C@H](CC(C)C)NC(=O)[C@H](CCCCN)NC1=O)[C@@H](C)CC)[C@@H](C)O)C(C)C)[C@@H](C)O` [SIRDKIKTMAIDLAKSAGTGVLKTLICKLDKSC]: the MIC in the experiment with Bacillus subtilis came out at 11.4 µM (≈ 40 µg/mL); with Escherichia coli ML-35p, 2.84 µM (≈ 9.99 µg/mL); in experiment [7], 2.84 µM (≈ 9.99 µg/mL); in [5], 2.84 µM (≈ 9.99 µg/mL); in [8], 4.26 µM (≈ 15 µg/mL); in [9] it was 1.42 µM (≈ 5 µg/mL). Further, the MIC in experiment [10] is 1.42 µM (≈ 5 µg/mL).

Regarding `CC[C@H](C)[C@H](N)C(=O)N[C@H](C(=O)N[C@H](C(=O)N1CCC[C@H]1C(=O)N1CCC[C@H]1C(=O)N[C@H](C(=O)N[C@H](C(=O)N[C@@H](CCCCN)C(=O)N[C@@H](CC(=O)O)C(=O)N[C@H](C(=O)N[C@@H](CC(C)C)C(=O)N[C@@H](CCCCN)C(=O)N[C@@H](CCCCN)C(=O)N[C@@H](Cc1ccccc1)C(=O)N[C@@H](Cc1ccccc1)C(=O)N[C@@H](CCCCN)C(=O)NCC(=O)NCC(=O)N[C@H](C(=O)N[C@@H](C)C(=O)NCC(=O)N[C@H](C(=O)N[C@@H](CCSC)C(=O)NCC(=O)N[C@@H](CCCCN)C(=O)N[C@@H](CO)C(=O)N[C@@H](CCC(N)=O)C(=O)O)C(C)C)[C@@H](C)CC)[C@@H](C)O)[C@@H](C)CC)[C@@H](C)CC)[C@@H](C)CC)[C@@H](C)O` [ITIPPIIKDTLKKFFKGGIAGVMGKSQ], the figures for the MIC in experiment [2] and in [3] were 40 µM (≈ 116 µg/mL) and ≥ 80 µM, respectively.

For the compound `CC[C@H](C)[C@H](NC(=O)[C@H](C)NC(=O)[C@@H](NC(=O)[C@@H](NC(=O)[C@H](CCCCN)NC(=O)CNC(=O)[C@H](CCCCN)NC(=O)[C@H](CC(=O)O)NC(=O)[C@H](CCCN=C(N)N)NC(=O)[C@@H](NC(=O)[C@@H](N)CO)[C@@H](C)CC)[C@@H](C)O)[C@@H](C)CC)C(=O)N[C@@H](CC(=O)O)C(=O)N[C@@H](CC(C)C)C(=O)N[C@@H](C)C(=O)N[C@@H](CCCCN)C(=O)N[C@@H](CO)C(=O)N[C@@H](C)C(=O)NCC(=O)N[C@H](C(=O)NCC(=O)N[C@H](C(=O)N[C@@H](CC(C)C)C(=O)N[C@@H](CCCCN)C(=O)N[C@H](C(=O)N[C@@H](CC(C)C)C(=O)N[C@@H](CCSC)C(=O)N[C@H]1CSSC[C@@H](C(=O)O)NC(=O)[C@H](CO)NC(=O)[C@H](CCCCN)NC(=O)[C@H](CC(=O)O)NC(=O)[C@H](CC(C)C)NC(=O)[C@H](CCCCN)NC1=O)[C@@H](C)O)C(C)C)[C@@H](C)O` [SIRDKGKTIAIDLAKSAGTGVLKTLMCKLDKSC], the MIC with Bacillus subtilis was found to be 8.66 µM (≈ 30 µg/mL); in the experiment with Escherichia coli ML-35p it was 2.89 µM (≈ 9.99 µg/mL); in experiment [7], 2.89 µM (≈ 9.99 µg/mL); in experiment [5] it was 2.89 µM (≈ 9.99 µg/mL); in [8], 2.89 µM (≈ 9.99 µg/mL); in experiment [9], 0.721 µM (≈ 2.5 µg/mL). This compound yielded an MIC in experiment [10] of 0.721 µM (≈ 2.5 µg/mL).

`CC[C@H](C)[C@@H]1NC(=O)[C@H](C)NC(=O)[C@@H](NC(=O)[C@H](Cc2ccc(O)cc2)NC(=O)[C@H](C)NC(=O)[C@H](C)NC(=O)[C@@H]2CCCN2C(=O)[C@@H](NC(=O)[C@@H](NC(=O)[C@H](CCCCN)NC(=O)[C@@H](NC(=O)[C@H](C)NC(=O)[C@H](C)NC(=O)[C@H](CCCCN)NC(=O)[C@@H](NC(=O)[C@H](CC(C)C)NC(=O)CNC(=O)CNC(=O)[C@H](CCSC)NC(=O)[C@@H](N)Cc2ccccc2)[C@@H](C)CC)[C@@H](C)O)[C@@H](C)CC)C(C)C)CSSC[C@@H](C(=O)O)NC(=O)[C@H](CCCCN)NC(=O)[C@H](CCCCN)NC(=O)[C@H]([C@@H](C)O)NC1=O` [FMGGLIKAATKIVPAAYCAITKKC]: the figures for the MIC in experiment [2] and in [3] were 3.2 µM (≈ 7.99 µg/mL) and 25 µM (≈ 62.5 µg/mL), respectively.

For the compound `CC[C@H](C)[C@H](NC(=O)[C@H](CO)NC(=O)[C@H](C)NC(=O)[C@@H](NC(=O)[C@H](CCCCN)NC(=O)[C@H](CCCCN)NC(=O)[C@H](Cc1c[nH]c2ccccc12)NC(=O)[C@H](CC(N)=O)NC(=O)[C@@H](N)CO)[C@@H](C)CC)C(=O)NCC(=O)N[C@@H](CCCCN)C(=O)N[C@@H](CCC(=O)O)C(=O)N[C@H](C(=O)N[C@@H](CC(C)C)C(=O)N[C@@H](CCCCN)C(=O)N[C@@H](C)C(=O)N[C@@H](CC(C)C)C(N)=O)C(C)C` [SNWKKIASIGKEVLKAL], the MIC against Bacillus subtilis is 30 µM (≈ 56.5 µg/mL); in the experiment with Escherichia coli, 25 µM (≈ 47.1 µg/mL).
